Results taken from ChEMBL document CHEMBL3885861, “Open TG-GATES”.

Species on record: Rattus norvegicus
Test: Open TG-GATES - Regimen: Single
Format: toxicity, organism-based, Sprague-Dawley
Set-up: regimen Single, gender Male, age 6 weeks
Conditions: in vivo, po, 0 mg/kg, route gavage, dose level Control; for APTT / Bas / Eos / Fbg / Hb / Lym / MCH / MCHC / MCV / Mono / Neu / PT / RBC / Ret / WBC: tissue Blood; for KIDNEY_L / KIDNEY_R / KIDNEY_TOTAL: tissue Kidney; for ALT / AST / CRE / DBIL / IP / K / LDH / Na / RALB / TBIL / TC / TG / TP / gamma-GTP / ALP: tissue Plasma

## Cc1cnc(NC(=O)C2=C(O)c3ccccc3S(=O)(=O)N2C)s1 [MELOXICAM]
3 h
  TERMINAL_BW: 226.2 g
  APTT: 17.9 s
  Bas: 0.4%
  Eos: 1%
  Fbg: 222.8 mg/dL
  Hb: 13.4 g/dL
  Lym: 78.6%
  MCH: 21.2 pg
  MCHC: 34.1%
  MCV: 62.3 fL
  Mono: 2%
  Neu: 17.6%
  PT: 11.8 s
  RBC: 633.2 x10_4/ul
  Ret: 7%
  WBC: 78.8 x10_2/uL
  KIDNEY_L: 1 g
  KIDNEY_R: 1 g
  KIDNEY_TOTAL: 2 g
  ALT: 37.6 IU/L
  AST: 68 IU/L
  CRE: 0.4 mg/dL
  DBIL: 0.06 mg/dL
  IP: 9.3 mg/dL
  K: 3.7 meq/L
  LDH: 149.4 IU/L
  Na: 141.4 meq/L
  RALB: 3.4 g/dL
  TBIL: 0.1 mg/dL
  TC: 79.6 mg/dL
  TG: 61.6 mg/dL
  TP: 5.4 g/dL
  gamma-GTP: 1 IU/L
6 h
  TERMINAL_BW: 224.5 g
  Bas: 0.6%
  Eos: 0.6%
  Fbg: 235.8 mg/dL
  Lym: 75.2%
  MCH: 21.8 pg
  MCHC: 33.8%
  MCV: 64.4 fL
  Mono: 3.2%
  Neu: 19.8%
  PT: 12.6 s
  RBC: 625.4 x10_4/ul
  Ret: 7.3%
  WBC: 110.7 x10_2/uL
  KIDNEY_L: 1 g
  KIDNEY_R: 1 g
  KIDNEY_TOTAL: 2 g
  ALP: 739.4 IU/L
  ALT: 31.4 IU/L
  AST: 61.6 IU/L
  CRE: 0.3 mg/dL
  DBIL: 0.066 mg/dL
  IP: 9.5 mg/dL
  K: 3.9 meq/L
  LDH: 153 IU/L
  Na: 141.4 meq/L
  RALB: 3.3 g/dL
  TBIL: 0.1 mg/dL
  TC: 74.8 mg/dL
  TG: 55.2 mg/dL
  TP: 5.4 g/dL
  gamma-GTP: 0.8 IU/L
9 h
  TERMINAL_BW: 222.3 g
  APTT: 17.6 s
  Bas: 0.2%
  Eos: 1%
  Fbg: 233.2 mg/dL
  Hb: 13.5 g/dL
  Lym: 72.4%
  MCH: 22.1 pg
  MCHC: 34.1%
  MCV: 64.8 fL
  Mono: 3%
  Neu: 22.4%
  PT: 12.6 s
  RBC: 610.8 x10_4/ul
  Ret: 7.2%
  WBC: 88.3 x10_2/uL
  KIDNEY_L: 1 g
  KIDNEY_R: 1 g
  KIDNEY_TOTAL: 2.1 g
  ALP: 910.8 IU/L
  ALT: 29.6 IU/L
  AST: 62.6 IU/L
  CRE: 0.4 mg/dL
  DBIL: 0.068 mg/dL
  IP: 9.5 mg/dL
  K: 4 meq/L
  LDH: 153.2 IU/L
  Na: 141.6 meq/L
  RALB: 3.4 g/dL
  TBIL: 0.1 mg/dL
  TC: 70.6 mg/dL
  TG: 78.8 mg/dL
  TP: 5.5 g/dL
  gamma-GTP: 1.2 IU/L
24 h
  TERMINAL_BW: 238.2 g
  Bas: 0.6%
  Eos: 1.2%
  Fbg: 224.8 mg/dL
  Lym: 78.6%
  MCH: 21.1 pg
  MCHC: 33.9%
  MCV: 62.4 fL
  Mono: 2.6%
  Neu: 16.4%
  PT: 11.7 s
  RBC: 646.8 x10_4/ul
  Ret: 6.4%
  KIDNEY_L: 1 g
  KIDNEY_R: 1 g
  KIDNEY_TOTAL: 2 g
  ALP: 981.2 IU/L
  ALT: 32.6 IU/L
  AST: 62.6 IU/L
  CRE: 0.4 mg/dL
  DBIL: 0.098 mg/dL
  IP: 7.5 mg/dL
  K: 3.9 meq/L
  LDH: 161 IU/L
  Na: 142.4 meq/L
  RALB: 3.4 g/dL
  TBIL: 0.2 mg/dL
  TC: 74.2 mg/dL
  TG: 125.4 mg/dL
  TP: 5.5 g/dL
